Assay results taken from patent US10407467B2, “Polymyxin derivatives and their use in combination therapy together with different antibiotics” (priority 2013, dated 2019).
Bridge positions count the residues as written; N and C are the ends. Square brackets hold non-standard residues; d marks the D form. Peptide text beside a SMILES is read from it. * marks the point of attachment. ξ: configuration not given here. ξβ3hGly(cHex) = NC(CC(=O)*)C1CCCCC1; Thr(3ξ) = CC(O)[C@H](N)C(=O)O; Dab = NCC[C@H](N)C(=O)O

Key:
[1] = test system: Escherichia coli isolate ATCC25922; settings: 10 mg/kg/day (5 mg/kg BID subcutaneous), neutropenic CD-1 mice, 24 h post-infection
Method: At 1 h, the CFU count was determined from 5 mice and the remaining mice (five per group) were treated with a subcutaneous injection of the drug at +1 and 6 hr post-infection.
Twenty-four hours after infection, the mice were euthanized humanely. The muscle of the right thigh of each animal was harvested, homogenized, serially diluted and plated on Brain Heart Infusion agar+0.5% charcoal (w/v) for CFU determination. Decrease of the total CFU of right thigh as compared to control counts at 24 h post-infection was determined for each dose group.

Pseudomonas aeruginosa = experiment: MIC, sole activity (no second agent); type: cell-based
In short: (§1)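 Inoculum: direct colony suspension (18-24 h MH agar), 0.5 McFarland. Medium: cation-adjusted MHB. Up to 4 strains/species; reported relative to Polymyxin B.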

Escherichia coli = experiment: MIC, sole activity (no second agent); type: cell-based
In short: as §1

Klebsiella pneumoniae = experiment: MIC, sole activity (no second agent); type: cell-based
In short: as §1

Acinetobacter baumannii = experiment: MIC, sole activity (no second agent); type: cell-based
In short: as §1

[2] = Second Agent none (Table 7B, by row order)

CC(C)C[C@@H]1NC(=O)[C@@H](Cc2ccccc2)NC(=O)[C@H](CCN)NC(=O)[C@@H](NC(=O)[C@H](CCN)NC(=O)[C@@H](NC(=O)CC(N)C2CCCCC2)C(C)O)CCNC(=O)[C@H](C(C)O)NC(=O)[C@H](CCN)NC(=O)[C@H](CCN)NC1=O (stereo partly drawn) [Example 10, [3(R,S)-3-Amino-3-cyclohexane-propanoyl]Polymyxin B nonapeptide] ({ξβ3hGly(cHex)}-[Thr(3ξ)][Dab][Dab][Dab][dF]L[Dab][Dab][Thr(3ξ)]; lactam 3-C)
1 micrograms/mL: MIC P. aeruginosa ATCC-47 (Pseudomonas aeruginosa; in the absence of Rifampicin, strain ATCC-47) | MIC K. pneumoniae ATCC 4352 (Klebsiella pneumoniae; Second Agent none (Table 7E)) | MIC K. pneumoniae ATCC 4352 (Klebsiella pneumoniae; Table 7F, K. pneumoniae ATCC4352, second agent none) | MIC K. pneumoniae ATCC 4352 (Klebsiella pneumoniae; Table 7G, K. pneumoniae ATCC4352, second agent none) | MIC K. pneumoniae ATCC 4352 (Klebsiella pneumoniae; Table 7H, K. pneumoniae ATCC4352, second agent none) | MIC K. pneumoniae ATCC 4352 (Klebsiella pneumoniae; Table 7I, K. pneumoniae ATCC4352, second agent none) | MIC K. pneumoniae ATCC 4352 (Klebsiella pneumoniae; in the absence of Rifampicin, strain ATCC 4352) | MIC A. baumannii ATCC13424 (Acinetobacter baumannii; in the absence of Rifampicin, strain ATCC13424)
4 microgram/mL: MIC E. coli NCTC9001 (Escherichia coli; Second Agent none (Table 7A))
>32 micrograms/mL: MIC K. pneumoniae CCUG 59348 (Klebsiella pneumoniae; K. pneumoniae CCUG 59348, second agent none) | MIC K. pneumoniae NCTC 13442 (Klebsiella pneumoniae; K. pneumoniae NCTC 13442, second agent none) | MIC K. pneumoniae CCUG 59348 (Klebsiella pneumoniae; Second Agent none (Table 7B)) | MIC K. pneumoniae NCTC 13442 (Klebsiella pneumoniae; Second Agent none (Table 7B)) | MIC K. pneumoniae CCUG 59348 (Klebsiella pneumoniae; Second Agent none (Table 7C)) | MIC K. pneumoniae NCTC 13442 (Klebsiella pneumoniae; Second Agent none (Table 7C)) | MIC K. pneumoniae CCUG-59348 (Klebsiella pneumoniae; in the absence of Rifampicin, strain CCUG-59348) | MIC K. pneumoniae NCTC-13438 (Klebsiella pneumoniae; in the absence of Rifampicin, strain NCTC-13438)
over 3 log10: reduction in bacterial counts [1]
2 micrograms/mL: MIC E. coli ATCC25922 (Escherichia coli; in the absence of Rifampicin, strain ATCC25922) | MIC A. baumannii NCTC 13424 (Acinetobacter baumannii; [2])
0.25 micrograms/mL: MIC P. aeruginosa CCUG 59626 (Pseudomonas aeruginosa; P. aeruginosa CCUG 59626, second agent none) | MIC P. aeruginosa ATCC 27853 (Pseudomonas aeruginosa; [2]) | MIC P. aeruginosa CCUG 59626 (Pseudomonas aeruginosa; [2]) | MIC P. aeruginosa CCUG 59626 (Pseudomonas aeruginosa; Second Agent none (Table 7C)) | MIC P. aeruginosa ATCC 10145 (Pseudomonas aeruginosa; Second Agent none (Table 7E)) | MIC P. aeruginosa ATCC 10145 (Pseudomonas aeruginosa; Table 7F, P. aeruginosa ATCC 10145, second agent none) | MIC P. aeruginosa ATCC 10145 (Pseudomonas aeruginosa; Table 7H, P. aeruginosa ATCC 10145, second agent none) | MIC P. aeruginosa ATCCCRM-9027 (Pseudomonas aeruginosa; in the absence of Rifampicin, strain ATCCCRM-9027) | MIC P. aeruginosa CCUG 59626 (Pseudomonas aeruginosa; in the absence of Rifampicin, strain CCUG 59626)
0.25 microgram/mL: MIC K. pneumoniae CCUG 59626 (Klebsiella pneumoniae; Second Agent none (Table 7A))
0.5 micrograms/mL: MIC P. aeruginosa ATCC 27853 (Pseudomonas aeruginosa; in the absence of Rifampicin, strain ATCC27853) | MIC E. coli CCUG 59342 (Escherichia coli; Second Agent none (Table 7B)) | MIC K. pneumoniae ATCC BAA-1706 (Klebsiella pneumoniae; K. pneumoniae ATCC BAA-1706, second agent none) | MIC K. pneumoniae ATCC 4352 (Klebsiella pneumoniae; [2]) | MIC K. pneumoniae ATCC BAA-1706 (Klebsiella pneumoniae; [2]) | MIC A. baumannii NCTC 13424 (Acinetobacter baumannii; Second Agent none (Table 7E)) | MIC A. baumannii NCTC 13424 (Acinetobacter baumannii; Table 7F, A. baumannii NCTC 13424, second agent none) | MIC A. baumannii NCTC 13424 (Acinetobacter baumannii; Table 7H, A. baumannii NCTC 13424, second agent none) | MIC A. baumannii ATCCBAA-747 (Acinetobacter baumannii; in the absence of Rifampicin, strain ATCCBAA-747) | MIC A. baumannii CCUG57249 (Acinetobacter baumannii; in the absence of Rifampicin, strain CCUG 57249)
0.125 micrograms/mL: MIC A. baumannii NCTC 13423 (Acinetobacter baumannii; in the absence of Rifampicin, strain NCTC13423)
>32 microgram/mL: MIC K. pneumoniae CCUG 59348 (Klebsiella pneumoniae; Second Agent none (Table 7A)) | MIC K. pneumoniae NCTC 13442 (Klebsiella pneumoniae; Second Agent none (Table 7A))
32 micrograms/mL: MIC K. pneumoniae ATCC-BAA2146 (Klebsiella pneumoniae; in the absence of Rifampicin, strain ATCC-BAA2146)
8 micrograms/mL: MIC E. coli NCTC9001 (Escherichia coli; Second Agent none (Table 7B)) | MIC E. coli ATCC25922 (Escherichia coli; Second Agent none (Table 7E)) | MIC E. coli NCTC 13441 (Escherichia coli; Second Agent none (Table 7E)) | MIC E. coli ATCC25922 (Escherichia coli; Table 7F, E. coli ATCC25922, second agent none) | MIC E. coli NCTC 13441 (Escherichia coli; Table 7F, E. coli NCTC 13441, second agent none) | MIC E. coli ATCC25922 (Escherichia coli; Table 7G, E. coli ATCC25922, second agent none) | MIC E. coli ATCC25922 (Escherichia coli; Table 7H, E. coli ATCC25922, second agent none) | MIC E. coli NCTC 13441 (Escherichia coli; Table 7H, E. coli NCTC 13441, second agent none) | MIC E. coli ATCC25922 (Escherichia coli; Table 7I, E. coli ATCC25922, second agent none) | MIC K. pneumoniae CCUG 59349 (Klebsiella pneumoniae; Second Agent none (Table 7E)) | MIC K. pneumoniae CCUG 59349 (Klebsiella pneumoniae; Table 7F, K. pneumoniae CCUG 59349, second agent none) | MIC K. pneumoniae CCUG 59349 (Klebsiella pneumoniae; Table 7H, K. pneumoniae CCUG 59349, second agent none)
4 micrograms/mL: MIC E. coli NCTC9001 (Escherichia coli; E. coli NCTC9001, second agent none) | MIC E. coli ATCC25922 (Escherichia coli; Second Agent none (Table 7B)) | MIC E. coli NCTC9001 (Escherichia coli; Second Agent none (Table 7C)) | MIC E. coli NCTC9001 (Escherichia coli; in the absence of Rifampicin, strain NCTC9001)
